Experimental data from article PMC9423820, “Melittin-derived peptides exhibit variations in cytotoxicity and antioxidant, anti-inflammatory and allergenic activities” (Animal Cells and Systems, 2022).
Where no end group is shown, it is not given here.

Experiments:
[1] = ABTS radical scavenging assay; assay type: biochemical; parameters: key to Anti-oxidant activity (summary): +, active; -, inactive; conditions: for antioxidant activity (ABTS radical scavenging), in words: 4 min reaction, absorbance 650 nm, resveratrol as positive control, n = 3; for Anti-oxidant activity (summary): Figure 4B summary, ABTS radical scavenging
Protocol: The antioxidant activities of melittin and melittin-derived peptides were measured using the 2,2'-azino-bis(3-ethylbenzothiazoline-6-sulfonic acid) (ABTS) radical scavenging assay. ABTS^+ radical solution was prepared by mixing equal volumes of 7 mM ABTS solution with 2.4 mM persulfate solution and allowing them to react in the dark at 25 °C for 24 h. Before this reaction, the ABTS^+ radical solution was diluted with distilled water to obtain an absorbance of 0.7 ± 0.01 units at 650 nm. Melittin and melittin-derived peptides (20 µL each) at various concentrations were then reacted with 80 µL of ABTS^+ radical solution for 4 min in the dark, and absorbance was measured at 650 nm using an EMax Plus microplate reader (Molecular Devices, San Jose, CA, USA). ABTS^+ radical scavenging activity was calculated using the following formula: ABTS+ radical scavenging activity (%) = [1 − (Abssample − Absblank of sample) / Abscontrol] × 100, where Abscontrol is the absorbance of ABTS^+ radical solution diluted in water, Abssample is the absorbance of ABTS^+ radical solution mixed with melittin or melittin-derived peptides, and Absblank of sample is the absorbance of water mixed with melittin or melittin-derived peptides. All experiments were performed in triplicates (n = 3).

BEAS-2B cells = experiment: MTS cell viability assay (CellTiter 96 Aqueous One), BEAS-2B; assay type: cell-based, human; parameters: key to Cytotoxicity (summary): +, active; -, inactive; conditions: 24 h; for Cytotoxicity (summary): Figure 4B summary, MTS assay, BEAS-2B and HeLa cells
Description: Human pulmonary bronchial epithelial BEAS-2B, human epithelial cervix carcinoma HeLa, murine macrophage RAW 264.7, and rat basophilic leukemia mast RBL-2H3 cells were purchased from American Type Culture Collection (ATCC, VA, USA). BEAS-2B cells were maintained in bronchial epithelial basal medium (BEBM; Lonza, Basel, Switzerland). HeLa, RAW 264.7, and RBL-2H3 cells were maintained in DMEM supplemented with 10% heat-inactivated fetal bovine serum (Welgene, Gyeongsangbuk-do, Korea) and 1% penicillin and streptomycin (Welgene) at 37 °C in a humidified atmosphere of 5% CO2. Melittin and its derived peptides (Figure 1A) were synthesized by Peptron, Inc. (Daejeon, Korea).
The effect of melittin and melittin-derived peptides on cell viability was evaluated using the CellTiter 96^R Aqueous One Solution Cell Proliferation Assay (Promega, Madison, WI, USA), according to the manufacturer’s instructions (Cambronero-Urena et al. [2021]). BEAS-2B and HeLa cells were seeded (3,000 cells/well) in 96-well plates and incubated for 24 h. Culture medium containing melittin or melittin-derived peptides was added to the plates, and they were incubated for 24 h. Thereafter, 20 μL of MTS reagent was added, and absorbance was measured at 490 nm using a microplate reader (Molecular Devices EMax Plus). The formula used to calculate the cell viability is as follows: Cell viability (%)={(A Sample−A [Blank]) / (A [Control])−A [Blank])}×100, Where A is the absorbance for a given wavelength.

[2] = system: TNF-α, IL-6, IL-1β mRNA expression in RAW 264.7 cells; experiment: qRT-PCR of inflammatory cytokine mRNA in LPS-stimulated RAW 264.7 cells; assay type: cell-based, murine; parameters: key to Anti-inflammatory activity (summary): +, active; -, inactive; conditions: for Anti-inflammatory activity (summary): Figure 4B summary, LPS-stimulated RAW 264.7 cells
Protocol: RAW 264.7 cells (1 × 10^5 cells/well) were seeded in 6-well plates and incubated for 24 h (Ahmed et al. [2020]). Next, culture medium with melittin or melittin-derived peptides was added to the plates, and they were incubated for 24 h. Thereafter, lipopolysaccharide (LPS) was added to the medium at a final concentration of 1 μg/mL, followed by incubation for 6 h. The medium was completely removed, the cells were washed with cold PBS and lysed with 1 mL of RiboEx (GeneAll, Korea), and RNA was extracted using a Hybrid-R RNA purification kit (GeneAll). To synthesize cDNA, RNA was quantified using a Nabi UV/Vis nanospectrophotometer (MicroDigital, Korea), and 1 μL of random hexamer (100 pmol/μL) and 1 μL of dNTP mix (10 mM) were added to each RNA sample (1 μg). The total volume was adjusted to 10 μL using DEPC-treated water. The mixture was subjected to heating at 65 °C for 5 min and immediately cooled on ice. Thereafter, 1 μL M-MLV reverse transcriptase (Promega), 4 μL 5X M-MLV RT reaction buffer (Promega), 1 μL RNase inhibitor (Enzynomics, Korea), and 4 μL DEPC-treated water were added to each RNA sample, and the mixture was incubated at 25 °C for 10 min and then at 50 °C for 1 h.
The mRNA expression levels of inflammatory cytokines were analyzed using qRT-PCR. The reaction mixture contained 10 μL of 2X Prime Q-master Mix (GENET BIO, Korea), 1.5 μL of 10 pmol/μL forward primer, 1.5 μL of 10 pmol/μL reverse primer, 5 μL of DEPC-treated water, and 2 μL of cDNA (1/10 dilution); qRT-PCR was performed using AriaMx (Agilent, USA) as per the following conditions: 40 cycles of denaturation at 95 °C for 20 s, annealing at 58 °C for 20 s, and elongation at 72 °C for 20 s. The primers used for the qRT-PCR are listed in Supplementary 1.

[3] = system: IκBα phosphorylation in RAW 264.7 cells; experiment: Immunoblot of phospho-IκBα in LPS-stimulated RAW 264.7 cells; assay type: cell-based, murine; conditions: RAW 264.7, 24 h pretreatment (melittin 1.25 μM; P1 2.5 μM; P2 indicated concentrations), LPS 1 μg/mL 1 h, n = 3
Protocol: RAW 264.7 cells (1 × 10^5 cells/well) were seeded in a 6-well plate and incubated for 24 h. Medium containing melittin or melittin-derived peptides was added, and the plates were incubated for 24 h. Thereafter, LPS was added to the medium at a final concentration of 1 μg/mL, followed by incubation for 1 h. To prepare protein samples, the medium was completely removed by aspiration, and the cells were washed with cold PBS and then lysed with lysis buffer [10 mM Tris-HCl (pH 7.5), 100 mM NaCl, 1 mM EDTA, 1 mM EGTA, 1% Triton X-100, 10% glycerol, and 0.1% SDS] with a protease inhibitor cocktail (Roche, Switzerland). The protein samples were sonicated and centrifuged at 16,000 × g for 10 min. The supernatant was then transferred to a new tube and used for immunoblot analysis. The protein samples were separated using sodium dodecyl sulfate-polyacrylamide gel electrophoresis (SDS-PAGE), and the separated proteins were transferred onto a nitrocellulose membrane (0.45 μm, Merck Millipore, USA). […] The unbound antibodies were washed with PBS-T, and the antibodies bound to the nitrocellulose membrane were detected using the SuperSignal system (SuperSignal; Thermo Fisher Scientific), using horseradish peroxidase-conjugated secondary antibodies (Abcam, Cambridge, UK).

RBL-2H3 cells = experiment: β-Hexosaminidase release (degranulation) assay; assay type: cell-based, rat; parameters: key: +, active; -, inactive; conditions: Figure 4B summary
Protocol: The β-hexosaminidase release assay was performed as previously described. RBL-2H3 cells (5 × 10^4 cells/well) were seeded in 96-well plates and incubated for 24 h. The medium was removed, and the cells were washed twice with siraganian buffer (119 mM NaCl, 5 mM KCl, 5.6 mM glucose, 0.4 mM MgCl2, 25 mM PIPES, 40 mM NaOH, 1 mM CaCl2, and 0.1% BSA, pH 7.2), and then incubated in 100 μL siraganian buffer supplemented with compound 48/80 (Sigma-Aldrich, St. Louis, MO, USA), melittin, or melittin-derived peptides for 1 h. Compound 48/80 was used as a positive control. The reaction was terminated by incubation at 4 °C for 10 min. The fluorescence of β-hexosaminidase in the supernatant was measured with a β-hexosaminidase activity assay kit (Cell Biolabs, USA) using a 2104 EnVision multilabel plate reader (PerkinElmer, USA) at […]. The relative fluorescence units of β-hexosaminidase release were calculated by subtracting the fluorescence intensity of the control group from that of the experimental group.

Row | Compound | antioxidant activity (ABTS radical scavenging), in words [1] | Anti-oxidant activity (summary) [1] | cellular activity (cell viability) (BEAS-2B cells; BEAS-2B, 2.5 μM, MTS, n = 3) [%] | concentration showing strong cytotoxicity (BEAS-2B cells; BEAS-2B, MTS) [µM] | Cytotoxicity (summary) (BEAS-2B cells) | Anti-inflammatory activity (summary) [2] | inhibition of mRNA expression of inflammatory cytokines (TNF-α, IL-6, IL-1β) ([2]; RAW 264.7, 1.25 μM, 24 h pretreatment, LPS 1 μg/mL 6 h, qRT-PCR, n = 3) | effect on LPS-induced IκBα phosphorylation [3] | Allergenic activity (summary) (RBL-2H3 cells)
1 | CC[C@H](C)[C@H](NC(=O)CN)C(=O)NCC(=O)N[C@@H](C)C(=O)N[C@H](C(=O)N[C@@H](CC(C)C)C(=O)N[C@@H](CCCCN)C(=O)N[C@H](C(=O)N[C@@H](CC(C)C)C(=O)N[C@H](C(=O)N[C@H](C(=O)NCC(=O)N[C@@H](CC(C)C)C(=O)N1CCC[C@H]1C(=O)N[C@@H](C)C(=O)N[C@@H](CC(C)C)C(=O)N[C@H](C(=O)N[C@@H](CO)C(=O)N[C@@H](Cc1c[nH]c2ccccc12)C(=O)N[C@H](C(=O)N[C@@H](CCCCN)C(=O)N[C@@H](CCCNC(=N)N)C(=O)N[C@@H](CCCCN)C(=O)N[C@@H](CCCNC(=N)N)C(=O)N[C@@H](CCC(N)=O)C(=O)N[C@@H](CCC(N)=O)C(N)=O)[C@@H](C)CC)[C@@H](C)CC)[C@@H](C)O)[C@@H](C)O)C(C)C)C(C)C [Melittin] | comparable to that of resveratrol | + | 75 | ≥ 5 | + | + | significant inhibition | decreased slightly | +
2 | P3: melittin-derived peptide composed of C-terminal 11 amino acids (LISWIKRKRQQ; ends and bridges not checked; UniProt P01501 59-69, looked up, fragment) |  | + |  |  | - | - |  |  | 
3 | P4: melittin-derived peptide consisting of nine amino acids of the N-terminal of melittin (GIGAVLKVL; Melittin; UniProt P01501 44-52, looked up, fragment) | did not show antioxidant activity | - |  |  | - | - |  |  | 
